From patent publication US9827250B2, “Lens incorporating myopia control optics and muscarinic agents” (Johnson & Johnson Vision Care, Inc., priority 2012, dated 2017)

Key:
[1] = Drug release from drug loaded lenses into PBS; format: physicochemical; settings: 34 degrees C
Method: Five drug loaded lenses, all together, were placed into 1 mL of phosphate buffered saline (PBS) and placed in a shaking water bath at thirty-four (34) degrees C. Samples were taken at regular intervals and replaced with fresh PBS. Release samples were analyzed spectrophotometrically to determine the concentration. As well, the nature of the peaks was also examined to determine whether there were any changes relative to the control samples (freshly prepared drug in appropriate buffer solutions). Drug loading and release was controlled using different loading concentrations to determine whether the release rate of the drug could be altered by changing simply or easily controlled conditions. Various drug concentrations were examined. In the case of 1 DAM, AT in ethanol and water (1:1) at various concentrations was examined or utilized. For the ATSM release from ATE lenses, the lenses were removed from the loading solution and rinsed to remove loosely physically adsorbed drug. For the 1 DAM lenses, the lenses were dried to remove any residual ethanol and rehydrated prior to the release study.
To establish drug release concentrations, five drug loaded lenses were placed into 1 ml of phosphate buffered saline (PBS) solution and placed in a shaking water bath at 34° C. […] Samples of solution were analyzed spectrophotometrically to determine the concentration of the released drug.

[2] = system: progression of myopia; settings: 0.5 percent drops instilled one time per day; cited from earlier work

Row | Structure (SMILES) | release of drug from 1 DAM lenses ([1]; 1 DAM lenses, FIG. 5) | release rate from ATE lenses as compared to 1 DAM lenses ([1]; ATE lenses, FIG. 7) | efficacy in slowing the progression of myopia [2]
1 | CN1[C@@H]2CC[C@H]1C[C@@H](OC(=O)C(CO)c1ccccc1)C2 (stereo partly drawn) [ATSM, atropine sulphate monohydrate] | release more quickly in greater amounts | somewhat lower release rate | –
2 | CN1[C@@H]2CC[C@H]1C[C@@H](OC(=O)C(CO)c1ccccc1)C2 (stereo partly drawn) [Atropine, atropine] | – | – | show efficacy in slowing the progression of myopia
